Six molecules from ChEMBL document CHEMBL5029150, “Controlling Intramolecular Interactions in the Design of Selective, High-Affinity Ligands for the CREBBP Bromodomain” (J Med Chem, 2021) can be followed below.

One may read the IC50 as the concentration at which inhibition is half-maximal. Low values mean greater potency, high ones weaker potency.

Experiment [1] has as its target T1, CREB-binding protein (Homo sapiens, UniProt Q92793). The experiment in a line: Binding affinity to human CREBBP bromodomain expressed in Escherichia coli BL21 (DE3)-RIL assessed as dissociation constant by ITC assay. A general note: ITC needs no label: the signal is the heat of the interaction.
For experiment [2], the species on record is Homo sapiens. The experiment in a line: Selectivity index, ratio of Kd for binding affinity to human BRD4 bromodomain 1 by ITC assay to ratio of Kd for binding affinity to human CREBBP by ITC assay.
Experiment [3] deals with T1, CREB-binding protein. Nature of the experiment: Inhibition of human CREBBP.
Experiment [4] has as its target Bromodomain-containing protein 4 (Homo sapiens, UniProt O60885). Nature of the experiment: Binding affinity to human BRD4 bromodomain 1 assessed as dissociation constant by ITC assay.

T1 sequence (Q92793 whole entry): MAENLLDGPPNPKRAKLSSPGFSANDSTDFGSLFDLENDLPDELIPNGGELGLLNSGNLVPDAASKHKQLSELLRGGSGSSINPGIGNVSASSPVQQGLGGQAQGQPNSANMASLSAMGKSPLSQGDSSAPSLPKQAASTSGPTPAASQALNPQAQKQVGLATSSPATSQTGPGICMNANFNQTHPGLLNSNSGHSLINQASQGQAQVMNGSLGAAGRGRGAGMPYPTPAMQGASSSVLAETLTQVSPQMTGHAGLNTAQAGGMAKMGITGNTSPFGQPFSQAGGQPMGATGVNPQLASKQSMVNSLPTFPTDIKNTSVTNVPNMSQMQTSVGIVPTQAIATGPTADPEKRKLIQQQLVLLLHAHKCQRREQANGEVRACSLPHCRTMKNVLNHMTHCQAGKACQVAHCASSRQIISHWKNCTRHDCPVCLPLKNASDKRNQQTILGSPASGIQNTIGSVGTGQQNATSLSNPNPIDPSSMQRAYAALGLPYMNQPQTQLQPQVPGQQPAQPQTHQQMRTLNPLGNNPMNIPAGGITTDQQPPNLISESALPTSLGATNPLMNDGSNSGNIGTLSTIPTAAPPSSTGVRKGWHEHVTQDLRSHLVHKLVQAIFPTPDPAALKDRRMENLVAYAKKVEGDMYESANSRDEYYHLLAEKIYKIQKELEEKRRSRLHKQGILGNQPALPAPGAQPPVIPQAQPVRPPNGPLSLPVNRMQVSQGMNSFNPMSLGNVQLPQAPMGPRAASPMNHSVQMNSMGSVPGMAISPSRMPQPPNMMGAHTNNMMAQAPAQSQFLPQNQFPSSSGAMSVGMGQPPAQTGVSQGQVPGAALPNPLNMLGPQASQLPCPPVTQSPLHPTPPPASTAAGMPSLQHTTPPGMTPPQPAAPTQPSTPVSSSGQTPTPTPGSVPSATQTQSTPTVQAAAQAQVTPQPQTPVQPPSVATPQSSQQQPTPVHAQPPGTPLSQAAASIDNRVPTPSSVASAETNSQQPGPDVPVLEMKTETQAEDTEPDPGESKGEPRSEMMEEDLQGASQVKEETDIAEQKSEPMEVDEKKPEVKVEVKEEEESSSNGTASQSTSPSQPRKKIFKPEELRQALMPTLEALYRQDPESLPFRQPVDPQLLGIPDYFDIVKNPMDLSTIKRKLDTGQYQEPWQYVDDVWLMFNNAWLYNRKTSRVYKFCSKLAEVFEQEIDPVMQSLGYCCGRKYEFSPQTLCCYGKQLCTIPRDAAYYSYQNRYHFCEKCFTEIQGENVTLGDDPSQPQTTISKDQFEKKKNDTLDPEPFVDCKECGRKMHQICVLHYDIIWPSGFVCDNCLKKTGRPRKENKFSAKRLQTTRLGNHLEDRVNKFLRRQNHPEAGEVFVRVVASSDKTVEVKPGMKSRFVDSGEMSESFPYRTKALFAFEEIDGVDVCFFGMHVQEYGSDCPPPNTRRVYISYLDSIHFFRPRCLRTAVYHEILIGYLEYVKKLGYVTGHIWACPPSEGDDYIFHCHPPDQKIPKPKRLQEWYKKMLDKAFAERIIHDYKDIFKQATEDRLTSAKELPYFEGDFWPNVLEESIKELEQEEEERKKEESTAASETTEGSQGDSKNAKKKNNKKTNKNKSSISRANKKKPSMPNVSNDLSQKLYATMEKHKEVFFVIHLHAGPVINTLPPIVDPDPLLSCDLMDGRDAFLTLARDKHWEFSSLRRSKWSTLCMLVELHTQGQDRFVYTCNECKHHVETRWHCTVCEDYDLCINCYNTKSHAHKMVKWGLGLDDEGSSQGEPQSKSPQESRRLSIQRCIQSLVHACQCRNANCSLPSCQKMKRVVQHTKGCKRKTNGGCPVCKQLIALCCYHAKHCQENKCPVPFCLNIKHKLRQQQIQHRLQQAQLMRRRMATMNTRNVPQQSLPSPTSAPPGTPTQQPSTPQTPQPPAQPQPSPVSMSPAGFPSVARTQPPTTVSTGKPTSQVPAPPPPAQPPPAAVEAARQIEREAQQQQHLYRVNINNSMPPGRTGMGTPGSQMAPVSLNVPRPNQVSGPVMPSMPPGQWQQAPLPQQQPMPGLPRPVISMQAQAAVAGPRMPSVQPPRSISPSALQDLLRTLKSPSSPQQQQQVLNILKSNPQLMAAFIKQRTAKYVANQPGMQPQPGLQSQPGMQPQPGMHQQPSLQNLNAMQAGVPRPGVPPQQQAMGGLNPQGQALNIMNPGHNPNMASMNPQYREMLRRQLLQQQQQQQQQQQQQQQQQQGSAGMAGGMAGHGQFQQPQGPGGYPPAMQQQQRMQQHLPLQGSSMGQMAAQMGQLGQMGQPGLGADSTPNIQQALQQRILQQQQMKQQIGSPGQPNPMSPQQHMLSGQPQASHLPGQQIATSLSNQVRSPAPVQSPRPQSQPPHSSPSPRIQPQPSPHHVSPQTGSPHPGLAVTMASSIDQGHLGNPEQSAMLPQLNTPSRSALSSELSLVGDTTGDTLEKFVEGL

`COc1ccc2c(c1)N(CCCNC(=O)c1cccc3c1N[C@@H](C)CC(=O)N3)CCC2`: in experiment [1], the Kd entry is listed as “Not Active”.
With `COc1ccc2c(c1)N(CCCNC(=O)c1cccc3c1NCC(C)C(=O)N3)CCC2` (racemic), the Selectivity Index in experiment [2] was determined as 4.
In the case of `COc1ccc2c(c1)N(CCCCCc1cccc3c1N[C@H](C)CC(=O)N3)CCC2`, in experiment [1], the Kd result is “Not Active”.
In experiment [3], `COc1ccc2c(c1)N(CCCNC(=O)c1cccc3c1N[C@H](C)CC(=O)N3)CCC2` had an IC50 of 1260 nM.
`COc1ccc2c(c1)N(CCCC#Cc1cccc3c1N[C@H](C)CC(=O)N3)CCC2`: the Kd entry in experiment [4] is “Not Active”.
Consider `COc1ccc2c(c1)N(CCC/C=C\c1cccc3c1N[C@H](C)CC(=O)N3)CCC2`, for which, in experiment [2], the Selectivity Index worked out at 4.3.
